{"source": "patent US20160193240A1", "about": "“Ulmoside-A: Useful For Prevention Or Cure Of Metabolic Diseases” (COUNCIL OF SCIENTIFIC & INDUSTRIAL RESEARCH, priority 2013, published 2016)", "key": {"wistar rats [1]": {"tested_on": "wistar rats", "test": "Dexamethasone-mediated reduction of food intake in rats", "assay_type": "in vivo, rat", "procedure": "Six to eight week old wistar rats (n=6 per group) were housed separately and treated as indicated in the example. Daily food intake was measured and plotted. […] Data represents mean+/−SEM.\nBlood was collected from cardiac punctures.\nFood intake was measured every alternate day by giving measured food to each cage in evening (5.00 PM) and collection of residual food in next morning (9.00 AM) and measuring it. The residual food was subtracted from the food given and plotted."}, "wistar rats [2]": {"tested_on": "wistar rats", "test": "Dexamethasone-mediated imbalance in serum Na, K level in rats", "assay_type": "in vivo, rat", "details": "Dex + ULMA, 14 days", "description": "Food intake was measured daily and the rats were weighed each week. The rats were fasted overnight (O/N) on day 14th and on day 15th oral glucose tolerance test was performed. Following oral glucose tolerance test (OGTT), rats were kept with food and water ad libitum for one day. On day 16th, rats were fasted again O/N and then euthanized. At autopsy, from 5 animals/group, tissues were collected and snap frozen in liquid nitrogen. Blood was collected from cardiac punctures. Plasma was separated from whole blood by centrifugation at 3000 rpm for 20 min immediately after collection of blood and stored at −80° C. until further analysis. Forelimb (quadriceps) skeletal muscles were processed for RNA and protein extraction, followed by quantitative real-time PCR (QRT-PCR) analysis. Two animals from each group were used for photography post autopsy."}, "[3]": {"tested_on": "Mouse stromal vascular fractions (SVF)", "test": "Brown adipose marker expression and mitochondrial copy number in mouse stromal vascular fractions", "assay_type": "cell-based", "procedure": "B. Mouse stromal vascular fractions (SVF) isolated from epididymal fat pads using collagenase digestion was differentiated in presence or absence of 10 nM ULMA and were analyzed for indicated mRNA expressions. **p<0.01, ***p<0.001 as determined by two tailed unpaired student's t-test.\nC. Cells from identical set of experiments as described in FIGS. 5A and 5B or human SVFs prepared by collagenase digestions were analyzed by western blot analysis for determination of UCP-1, UCP-2 and PGC-1α protein level. Beta-actin was used as a loading control. Data is representative of three independent experiments.\nD. Mouse SVFs differentiated in presence or absence of 10 nM ULMA were evaluated for mitochondrial copy number. Total cellular DNA was isolated from these cells by standard procedure (using a genomic DNA isolation kit; Macherey Nagel; according to manufacturer's instructions) and the mitochondrial DNA content was measured by QRT-PCR based measurement of mitochondrial cytochrome b (Cytb) by qPCR and normalized with genomic glycerol three phosphate dehydrogenase DNA level. Data represent mean±SEM from three independent experiments performed in triplicates. **p<0.01 as determined by two tailed unpaired student's t-test.\nMouse stromal vascular fractions (SVF) from epididymal fat pad were prepared using standard collagenase digestion method. Human SVF was prepared from human lipoaspirates (subcutaneous) collected from an obese individual undergoing liposuction following approval of Institutional Ethical Committee. To isolate SVFs, epidymal fat pads tissue or lipoaspirates were washed 6× in PBS and then were dispensed in tissue culture flasks. 0.2% sterile collagenase (Sigma) solution containing 1× antibiotic-antimycotic (Invitrogen) was then added to the adipose and the flasks were shaken vigorously for 10 seconds. The flasks were then incubated at 37° C. on a shaker for 2 hours with manual shaking of the flasks for 5-10 seconds every 15 min. After completion of digestion, FBS was added to the final concentration of 10% to the flasks, mixed and the collagenase digested tissue were then dispensed in 50 ml conical tubes and were centrifuged at 400 g for 10 min at room temp. The supernatant was discarded and the pellets constituting the SVFs were then reconstituted in culture medium (DMEM/F12 50:50+10% FBS) and plated in T25 tissue culture flasks and cultured for further experiments.\nThe SVFs were differentiated as for 3T3L-1 (described above), in presence of ULMA or vehicle (10 d for mouse SVF and 21 d for human SVF), following which they were lysed and used for QPCR or western blot analysis.\nFor western blot-based determination of UCP-1, UCP-2 and PGC-1α protein level, cells from an identical set of experiment were lysed and western blotted with UCP-1, UCP-2 (Abcam), PGC-1α(Calbiochem), or beta-actin (cell signaling technology; used as a loading control) as described above."}, "[4]": {"details": "differentiated in presence of ULMA, 10 d"}}, "note": "Marks after values point to notes of the source that are not given here."}
{"compound": "O=C1c2c(cc(O)c([C@@H]3O[C@H](CO)[C@@H](O)[C@H](O)[C@H]3O)c2O)O[C@@H](c2ccc(O)c(O)c2)[C@@H]1O", "note": "[ULMA, (2S,3S)-(+)-3′,4′,5,7-tetrahydroxydihydroflavonol-6-C-β-D-glucopyranoside]", "values": [{"measurement": "food intake in vehicle treated (ethanol: IP) rats", "setting": "wistar rats [1]; 5 mg/kg ULMA oral alone", "value": "did not affect food intake"}, {"measurement": "Dex-caused loss in food intake", "setting": "wistar rats [1]; Dex + 5 mg/kg ULMA oral", "value": "alleviated it"}, {"measurement": "Na (mmol/l)", "setting": "wistar rats [2]", "value": "124 ± 3.7^a mmol/l"}, {"measurement": "serum K", "setting": "wistar rats [2]", "value": "3.93 ± 0.08", "unit": "mM"}, {"measurement": "PGC-1α mRNA level", "setting": "[3]; 10 nM, 10 d differentiation", "value": "significant increase"}, {"measurement": "PRDM16 mRNA level", "setting": "[3]; 10 nM, 10 d differentiation", "value": "significant increase"}, {"measurement": "UCP-1 mRNA level", "setting": "[3]; 10 nM, 10 d differentiation", "value": "significant increase"}, {"measurement": "UCP-2 mRNA level", "setting": "[3]; 10 nM, 10 d differentiation", "value": "significant increase"}, {"measurement": "mitochondrial DNA copy number (cytb level)", "setting": "[3]; 10 nM, differentiated mouse SVFs", "value": "significantly higher"}, {"measurement": "PGC-1α protein level", "setting": "[3]; [4]", "value": "elevated"}, {"measurement": "UCPs protein level", "setting": "[3]; [4]", "value": "elevated"}]}
